A short description of data set [1]: Evaluation of solubility in water at 23° C. In kind it is physicochemical. Particulars: stirred for 1 hour. An outline of the steps: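 Compound stirred in water at 23 °C, atmospheric pressure, for 1 h; solubility determined and reported in mass % classes.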
A short description of data set [2]: Evaluation of absorption maximum and absorbance ratio (500 nm/λmax) in solution. In kind it is physicochemical. As to conditions: for Absorbance Ratio (500 nm/λmax) / Absorption Maximum (nm): solvent chloroform. An outline of the steps: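 Compounds dissolved at 2.5×10^−6 mol/L in chloroform, or methanol or DMSO if insoluble, and absorption spectrum recorded at 10 mm path length. λmax taken in 650–1000 nm range; absorbance at 500 nm divided by absorbance at λmax, graded A (≤0.04), B (>0.04–0.08), C (>0.08).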

As for `CC(CCC(COc1cccc(-c2c3/c(=C(\C#N)c4ccc5ccccc5n4)n(B(c4ccccc4)c4ccccc4)c(-c4cccc(OCC(CCC(C)CC(C)(C)C)C(C)CC(C)(C)C)c4)c3/c(=C(\C#N)c3ccc4ccccc4n3)n2B(c2ccccc2)c2ccccc2)c1)C(C)CC(C)(C)C)CC(C)(C)C` (centres unmarked) [III-358], in data set [1], the Solubility result is “A (the solubility in water at 23 °C was 0.1 mass % or lower)”. Moreover, in data set [2], the “Absorbance Ratio (500 nm/λmax)” value is recorded as “A (the absorbance ratio (500 nm/λmax) was 0.04 or lower)” and the “Absorption Maximum (nm)” value is recorded as 814 nm.

On to `Cc1ccc2oc(/C(C#N)=c3/c4c(-c5cccc(OCC(CCC(C)CC(C)(C)C)C(C)CC(C)(C)C)c5)n(B5Oc6ccccc6O5)/c(=C(/C#N)c5nc6ccccc6s5)c4c(-c4cccc(OCC(CCC(C)CC(C)(C)C)C(C)CC(C)(C)C)c4)n3B3Oc4ccccc4O3)nc2c1` (centres unmarked) [IV-92], for which the Solubility entry in data set [1] was “A (the solubility in water at 23 °C was 0.1 mass % or lower)”. For the same molecule, the “Second Near Infrared Absorbing Compound λmax (nm)” value in data set [2] (absorption maximum of the second near infrared absorbing compound) was determined as 702 nm. The “λmax (nm) of Second Near Infrared Absorbing Compound” value in data set [2] (as listed in Table 58) is 701 nm. Further, in data set [2], the “Absorbance Ratio (500 nm/λmax)” value was “A (the absorbance ratio (500 nm/λmax) was 0.04 or lower)” and the “Absorption Maximum (nm)” value is listed as 701 nm.

Consider `CC(CCC(COc1cccc(-c2[nH]/c(=C(/C#N)c3cnc4ccccc4n3)c3c(-c4cccc(OCC(CCC(C)CC(C)(C)C)C(C)CC(C)(C)C)c4)[nH]/c(=C(/C#N)c4cnc5ccccc5n4)c23)c1)C(C)CC(C)(C)C)CC(C)(C)C` (centres unmarked) [PP-1], for which, in data set [1], the Solubility result was “A (the solubility in water at 23 °C was 0.1 mass % or lower)”. For the same molecule, in data set [2], the “Absorbance Ratio (500 nm/λmax)” value was “B (the absorbance ratio (500 nm/λmax) was higher 0.04 and 0.08 or lower)”; the “Absorption Maximum (nm)” value came to 739 nm.

The values are drawn from patent publication US10947389B2, “Composition, film, near infrared cut filter, laminate, pattern forming method, solid image pickup element, image display device, infrared sensor, and color filter” (FUJIFILM Corporation, priority 2016, dated 2021).
